Test results from ChEMBL document CHEMBL5579808, “Development of 1,5-diarylpyrazoles as EGFR/JNK-2 dual inhibitors: design, synthesis, moleecular docking, and bioactivity evaluation” (Bioorg Med Chem Lett, 2024).
pIC50: −log10 of the molar value. Activity calls are given as the source filed them. The calls are words filed in the database; no cut-off is given here.

What was measured:
HepG2 [1] = assay: Growth inhibition of human HepG2 cells at 100 uM by WST-8 assay relative to control; format: functional; settings: read-out: GI
HeLa [2] = assay: Induction of apoptosis in human HeLa cells assessed as total cells at 2 times IC50 incubated for 24 hrs by Annexin V-FITC/PI staining based flow cytometry (reference value: 1.8 %); format: functional
HeLa [3] = assay: Induction of apoptosis in human HeLa cells assessed as necrotic cells at 2 times IC50 incubated for 24 hrs by Annexin V-FITC/PI staining based flow cytometry (reference value: 1.8 %); format: functional
HeLa [4] = assay: Induction of cell cycle arrest at S phase in human HeLa cells at IC50 incubated for 24 hrs by PI staining based flow cytometry (reference value: 8 %); format: functional
DLD-1 [5] = assay: Growth inhibition of human DLD-1 cells at 100 uM by WST-8 assay relative to control; format: functional; settings: read-out: GI
HeLa [6] = assay: Growth inhibition of human HeLa cells at 100 uM by WST-8 assay relative to control; format: functional; settings: read-out: GI
K562 [7] = assay: Growth inhibition of human K562 cells at 100 uM by WST-8 assay relative to control; format: functional; settings: read-out: GI
K562 [8] = assay: Antiproliferative activity against human K562 cells by WST-8 assay; format: functional, cell-based
HeLa [9] = assay: Antiproliferative activity against human HeLa cells by WST-8 assay; format: functional, cell-based
HeLa [10] = assay: Induction of cell cycle arrest at G2 phase in human HeLa cells at IC50 incubated for 24 hrs by PI staining based flow cytometry (reference value: 7 %); format: functional
[11] = biological target: Epidermal growth factor receptor (Mus musculus, UniProt Q01279); assay: Inhibition of recombinant mouse EGFR by ELISA
Chain of Epidermal growth factor receptor (Q01279 whole entry): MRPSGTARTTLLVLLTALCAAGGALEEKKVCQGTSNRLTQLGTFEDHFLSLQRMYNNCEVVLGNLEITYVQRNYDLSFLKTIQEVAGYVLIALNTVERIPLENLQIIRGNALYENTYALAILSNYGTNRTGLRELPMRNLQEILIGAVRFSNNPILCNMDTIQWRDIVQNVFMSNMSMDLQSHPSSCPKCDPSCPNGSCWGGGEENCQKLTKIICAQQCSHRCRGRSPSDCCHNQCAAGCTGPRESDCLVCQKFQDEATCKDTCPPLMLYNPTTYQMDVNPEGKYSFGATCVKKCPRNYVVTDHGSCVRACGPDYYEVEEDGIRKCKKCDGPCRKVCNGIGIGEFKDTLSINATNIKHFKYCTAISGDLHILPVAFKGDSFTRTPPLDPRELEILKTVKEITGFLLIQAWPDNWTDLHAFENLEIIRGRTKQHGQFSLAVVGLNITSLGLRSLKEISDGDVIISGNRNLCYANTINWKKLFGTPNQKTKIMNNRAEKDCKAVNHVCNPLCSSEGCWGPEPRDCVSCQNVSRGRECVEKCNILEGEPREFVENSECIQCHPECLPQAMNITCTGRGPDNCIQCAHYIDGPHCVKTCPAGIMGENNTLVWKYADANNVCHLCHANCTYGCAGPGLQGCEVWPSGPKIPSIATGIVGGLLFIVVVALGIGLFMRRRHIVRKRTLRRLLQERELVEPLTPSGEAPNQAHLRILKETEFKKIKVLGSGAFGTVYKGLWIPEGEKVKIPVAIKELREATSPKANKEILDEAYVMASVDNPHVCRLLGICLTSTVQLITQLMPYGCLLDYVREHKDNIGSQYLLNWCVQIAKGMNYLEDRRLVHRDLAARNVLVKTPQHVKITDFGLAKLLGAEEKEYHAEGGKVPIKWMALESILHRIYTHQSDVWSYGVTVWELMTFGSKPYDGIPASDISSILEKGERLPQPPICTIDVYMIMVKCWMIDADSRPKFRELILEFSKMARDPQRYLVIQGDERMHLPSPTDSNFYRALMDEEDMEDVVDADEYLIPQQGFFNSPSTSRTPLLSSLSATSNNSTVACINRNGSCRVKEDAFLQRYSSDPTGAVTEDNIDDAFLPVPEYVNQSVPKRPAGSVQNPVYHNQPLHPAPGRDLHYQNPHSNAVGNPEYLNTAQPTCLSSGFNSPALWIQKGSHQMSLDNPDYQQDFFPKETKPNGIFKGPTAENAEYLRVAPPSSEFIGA

HeLa [12] = assay: Induction of apoptosis in human HeLa cells assessed as early apoptotic cells at 2 times IC50 incubated for 24 hrs by Annexin V-FITC/PI staining based flow cytometry (reference value: 0 %); format: functional
HeLa [13] = assay: Induction of apoptosis in human HeLa cells assessed as late apoptotic cells at 2 times IC50 incubated for 24 hrs by Annexin V-FITC/PI staining based flow cytometry (reference value: 0 %); format: functional
[14] = Growth inhibition of human SUIT-2 cells at 100 uM by WST-8 assay relative to control; format: functional; settings: read-out: GI
DLD-1 [15] = assay: Antiproliferative activity against human DLD-1 cells by WST-8 assay; format: functional, cell-based
[16] = Antiproliferative activity against human SUIT-2 cells by WST-8 assay; format: functional, cell-based
HeLa [17] = assay: Induction of cell cycle arrest at G1 phase in human HeLa cells at IC50 incubated for 24 hrs by PI staining based flow cytometry (reference value: 68 %); format: functional
[18] = biological target: Mitogen-activated protein kinase 9 (Homo sapiens, UniProt P45984); assay: Inhibition of JNK2 (unknown origin) incubated for 90 mins by ELISA
HeLa [19] = assay: Induction of apoptosis in human HeLa cells assessed as total cells at half of IC50 incubated for 24 hrs by Annexin V-FITC/PI staining based flow cytometry (reference value: 1.8 %); format: functional
HeLa [20] = assay: Induction of apoptosis in human HeLa cells assessed as necrotic cells at half of IC50 incubated for 24 hrs by Annexin V-FITC/PI staining based flow cytometry (reference value: 1.8 %); format: functional
HepG2 [21] = assay: Antiproliferative activity against human HepG2 cells by WST-8 assay; format: functional, cell-based
HeLa [22] = assay: Induction of apoptosis in human HeLa cells assessed as late apoptotic cells at half of IC50 incubated for 24 hrs by Annexin V-FITC/PI staining based flow cytometry (reference value: 0 %); format: functional
HeLa [23] = assay: Induction of apoptosis in human HeLa cells assessed as early apoptotic cells at half of IC50 incubated for 24 hrs by Annexin V-FITC/PI staining based flow cytometry (reference value: 0 %); format: functional
HeLa [24] = assay: Induction of cell cycle arrest at G1 phase in human HeLa cells at IC50 incubated for 48 hrs by PI staining based flow cytometry (reference value: 68 %); format: functional
HeLa [25] = assay: Induction of cell cycle arrest at G2 phase in human HeLa cells at IC50 incubated for 48 hrs by PI staining based flow cytometry (reference value: 7 %); format: functional
HeLa [26] = assay: Induction of cell cycle arrest at S phase in human HeLa cells at IC50 incubated for 48 hrs by PI staining based flow cytometry (reference value: 8 %); format: functional

| pIC50 (K562 [8]) | pIC50 (HeLa [9]) | pIC50 [11] | pIC50 (DLD-1 [15]) | pIC50 (HepG2 [21]) | SMILES | inhibition of growth at 100 µM (HepG2 [1]) | inhibition of growth at 100 µM (DLD-1 [5]) | inhibition of growth at 100 µM (HeLa [6]) | inhibition of growth at 100 µM (K562 [7]) | inhibition of growth at 100 µM [14] | pIC50 [16] | also measured |
| --- | --- | --- | --- | --- | --- | --- | --- | --- | --- | --- | --- | --- |
| 4.66 | 4.80 | 5.77 | 5.24 |  | CS(=O)(=O)c1ccc(NC(=O)c2cc(-c3ccc(Cl)cc3)n(-c3ccccc3)n2)cc1 | 50% | 98% | 101% | 88% | 94% | 4.60 | Activity (HeLa [2]): 94%; Activity (HeLa [3]): 18%; Activity (HeLa [4]): 82%; Activity (HeLa [10]): 6%; Activity (HeLa [12]): 1.4%; Activity (HeLa [13]): 75%; Activity (HeLa [17]): 6%; pIC50 [18]: < 3.70 |
|  |  |  | 4.48 |  | CS(=O)(=O)c1ccc(NC(=O)c2cc(-c3ccccc3)n(-c3ccccc3)n2)cc1 | 41% | 81% | 28% | 32% | 86% |  |  |
| 4.76 | 4.57 |  |  | 4.42 | COc1cc(C=O)ccc1OC(=O)c1cc(-c2ccccc2)n(-c2ccc(S(N)(=O)=O)cc2)n1 | 84% | 100% | 79% | 82% | 95% |  |  |
| 4.77 |  |  | 5.30 |  | COc1cc(C=O)ccc1OC(=O)c1cc(-c2ccc(Cl)cc2)n(-c2ccc(S(N)(=O)=O)cc2)n1 | 54% | 97% | 51% | 85% | 94% | 4.30 |  |
|  | 4.20 | 3.96 | 4.66 | 5.00 | Cc1ccc(-c2cc(C(=O)Nc3ccc(S(C)(=O)=O)cc3)nn2-c2ccccc2)cc1 | 94% | 87% | 78% | 58% | 87% |  | pIC50 [18]: < 3.70 |
| 4.81 |  | 5.57 | 4.53 |  | NS(=O)(=O)c1ccc(NC(=O)c2cc(-c3ccc(Cl)cc3)n(-c3ccccc3)n2)cc1 | 27% | 94% | 0% | 86% | 99% | 4.30 | pIC50 [18]: 5.52 |
|  |  |  |  | 5.23 | NS(=O)(=O)c1ccc(NC(=O)c2cc(-c3ccccc3)n(-c3ccccc3)n2)cc1 | 107% | 64% | 12% | 89% | 91% | 4.74 |  |
|  | 4.78 | < 3.00 | 4.79 | 5.44 | Cc1ccc(-c2cc(C(=O)Nc3ccc(S(N)(=O)=O)cc3)nn2-c2ccccc2)cc1 | 101% | 99% | 0% | 65% | 96% | 4.89 | inhibition [18]: inactive |

More lines, now with the values behind:

| SMILES | pIC50 (K562 [8]) | pIC50 (HeLa [9]) | pIC50 [11] | pIC50 (DLD-1 [15]) | pIC50 (HepG2 [21]) | inhibition of growth at 100 µM (HepG2 [1]) | inhibition of growth at 100 µM (DLD-1 [5]) | inhibition of growth at 100 µM (HeLa [6]) | inhibition of growth at 100 µM (K562 [7]) | inhibition of growth at 100 µM [14] | pIC50 [16] | also measured |
| --- | --- | --- | --- | --- | --- | --- | --- | --- | --- | --- | --- | --- |
| COc1cc(C=O)ccc1OC(=O)c1cc(-c2ccc(Cl)cc2)n(-c2ccccc2)n1 |  |  |  |  |  | 20% | 74% | 51% | 66% | 92% |  |  |
| COc1ccc(-c2cc(C(=O)Nc3ccc(S(C)(=O)=O)cc3)nn2-c2ccccc2)cc1 |  |  |  |  |  | 62% | 64% | 76% | 41% | 90% | 4.39 |  |
| COc1cc(C=O)ccc1OC(=O)c1cc(-c2ccc(C)cc2)n(-c2ccc(S(N)(=O)=O)cc2)n1 | 5.12 | 4.85 | 4.30 | 4.77 | 5.57 | 101% | 100% | 95% | 95% | 87% | 4.77 | Activity (HeLa [4]): 83%; Activity (HeLa [19]): 25%; Activity (HeLa [20]): 5.9%; Activity (HeLa [10]): 7%; Activity (HeLa [22]): 19%; Activity (HeLa [17]): 4%; pIC50 [18]: 5.70; Activity (HeLa [23]): 0.4% |
| COc1ccc(-c2cc(C(=O)Oc3ccc(C=O)cc3OC)nn2-c2ccc(S(N)(=O)=O)cc2)cc1OC |  |  |  |  |  | 92% | 75% | 70% | 77% | 66% |  |  |
| COc1ccc(-c2cc(C(=O)Oc3ccc(C=O)cc3OC)nn2-c2ccccc2)cc1 |  |  |  |  |  | 11% | 61% | 30% | 61% | 91% |  |  |
| COc1cccc2c1C(=O)c1c(O)c3c(c(O)c1C2=O)C[C@@](O)(C(C)=O)C[C@@H]3O[C@H]1C[C@H](N)[C@H](O)[C@H](C)O1 [DAUNORUBICIN] | 4.88 | 7.00 |  | 4.52 | 4.66 | 100% | 84.2% | 100% | 100% | 92% | 5.05 |  |
| COc1ccc(-c2cc(C(=O)Oc3ccc(C=O)cc3OC)nn2-c2ccc(S(N)(=O)=O)cc2)cc1 | 4.83 | 4.51 | < 3.00 | 5.25 | 5.11 | 82% | 104% | 78% | 85% | 95% | 5.30 | pIC50 [18]: 6.05 |
| COc1ccc(-c2cc(C(=O)Oc3ccc(C=O)cc3OC)nn2-c2ccccc2)cc1OC |  |  |  |  |  | 74% | 96% | 0% | 58% | 86% |  |  |
| COc1cc(C=O)ccc1OC(=O)c1cc(-c2ccccc2)n(-c2ccccc2)n1 |  |  |  |  |  | 60% | 71% | 31% | 52% | 91% |  |  |
| COc1cc(C=O)ccc1OC(=O)c1cc(-c2ccc(C)cc2)n(-c2ccccc2)n1 | 4.83 | 4.82 |  |  | 5.05 | 50% | 70% | 84% | 79% | 89% |  | Activity (HeLa [24]): 59%; Activity (HeLa [2]): 86%; Activity (HeLa [3]): 33%; Activity (HeLa [25]): 23%; Activity (HeLa [4]): 8%; Activity (HeLa [10]): 21%; Activity (HeLa [12]): 5.9%; Activity (HeLa [13]): 48%; Activity (HeLa [26]): 5%; Activity (HeLa [17]): 64% |
| COc1ccc(-c2cc(C(=O)Nc3ccc(S(C)(=O)=O)cc3)nn2-c2ccccc2)cc1OC |  |  |  |  |  | 37% | 74% | 19% | 62% | 89% |  |  |
| CNC(=O)c1cc(Oc2ccc(NC(=O)Nc3ccc(Cl)c(C(F)(F)F)c3)cc2)ccn1 [SORAFENIB] |  |  | 5.46 |  |  |  |  |  |  |  |  |  |
| COc1ccc(-c2cc(C(=O)Nc3ccc(S(N)(=O)=O)cc3)nn2-c2ccccc2)cc1OC |  |  |  |  |  | 90% | 56% | 51% | 58% | 91% |  |  |
| COc1ccc(-c2cc(C(=O)Nc3ccc(S(N)(=O)=O)cc3)nn2-c2ccccc2)cc1 |  |  |  |  |  | 26% | 69% | 74% | 26% | 78% |  |  |
